# Data published in paper PMC8018653, “Gender-based differences in brain and plasma pharmacokinetics of letrozole in sprague-dawley rats: Application of physiologically-based pharmacokinetic modeling to gain quantitative insights” (PLoS ONE, 2021).
# Where “and” joins values, the source holds several entries; their conditions need not be identical. Equal entries are not always repeated. Where two headings read alike, the source gives them in different places. Marks after values point to notes of the source that are not given here.
# Key:
# [1] = Single dose plasma pharmacokinetics (4 mg/kg i.p.), NCA; assay type: in vivo, Sprague-Dawley rats; conditions: for Cmax / Tmax / AUC(0-t) / half-life: ip; for Cmax / Tmax / CL (systemic clearance), plasma / Half-life t1/2, plasma / AUC 0–12, plasma unbound / AUC 0–72, plasma unbound / Cmax, plasma unbound / AUC(0-t) / half-life: single dose 4 mg/kg i.p.; for Cmax: read-out: Cmax, plasma total; for Tmax: read-out: Tmax, plasma total; for AUC 0–12, plasma unbound / AUC 0–72, plasma unbound / Cmax, plasma unbound: fraction unbound 0.38; for half-life: read-out: Half-life t1/2, plasma (converted)
# Description: (§1) Age-matched (7–9 weeks) adult female (201–225 g; N = 10) and male (301–325 g; N = 10) jugular vein cannulated Sprague-Dawley rats (Charles River Laboratories) were used for this study. The experiments were conducted in strict accordance with the University of Cincinnati Institutional Animal Care and Use Committee (UC IACUC)-approved protocol (Protocol Number: 10-11-01-01) and all the studies were performed as per the highest international standards of animal welfare outlined by the NIH’s Guide for the Care and Use of Laboratory Animals. Upon arrival, animals were housed individually under pathogen-free, temperature and humidity-controlled environment on a 12/12 h light/dark cycle and were given access to standard chow and water ad libitum (ad-lib). To maintain the patency of the jugular vein catheters, they were flushed with normal saline and locked with the heparin-dextrose solution every other day.
# Within 10 minutes of collection, plasma was separated by centrifugation of the blood samples at 4,000 rpm for 15 min. Microdialysis samples were collected simultaneously through the probes at the same time points from 0–12 hours.
# (§2) Letrozole was extracted from the plasma samples using the liquid-liquid extraction technique. Calibration standards were freshly prepared by spiking working letrozole solution into the blank rat plasma to give a concentration curve ranging from 5 to 5000 ng/ml. Briefly, 50 μl of the plasma sample/standard spiked with known letrozole concentration was transferred to a glass tube containing 1 mL of the extraction solvent methyl-tertiary-butyl ether. All the samples were then vortex mixed for 40 sec and centrifuged for 5 min. 800 μl of the supernatant was decanted into a clean test tube and evaporated to dryness using a CentriVap evaporator. The precipitate was reconstituted in 100 μl of the mobile phase and vortex mixed, following which, 50 μl sample volume was injected onto the HPLC system for analysis. The dialysis samples, on the other hand, were injected directly onto HPLC.
# [2] = Steady state plasma pharmacokinetics (4 mg/kg i.p. once daily), NCA; assay type: in vivo, Sprague-Dawley rats; conditions: for Cmax / Tmax / AUC(0-t): Sprague-Dawley, rat, ip; for Cmax / Tmax / Rac’ (theoretical/predicted accumulation ratio, Eq 2) / AUC(0-t): plasma; for Cmax: read-out: Cmax, plasma total; for Tmax: read-out: Tmax, plasma total; for AUC 0–12, plasma unbound / AUC 0–24, plasma unbound / Cmax, plasma unbound: fraction unbound 0.38; for AUC(0-t): 4 mg/kg
# Description: as §1, §2
# [3] = In vivo unbound fraction in brain (brain ECF / whole brain tissue homogenate); conditions: Sprague-Dawley, rat, ip, healthy and tumor-bearing female rats, 4 mg/kg i.p., ~6 hrs, mean ± SD, read-out: Fraction unbound in brain (fu, brain)
# Text: Simcyp Animal Simulator V17 (Certara Inc.) was employed for developing a bottom-up whole body PBPK model incorporating the specified multi-compartment brain model. Based on its anatomy and physiology, the whole brain is described by three compartments, viz. brain blood, brain mass and cerebrospinal fluid (CSF) as illustrated in Fig 1 (Simcyp® Rat Simulator). For model development, the physiological/ system-specific parameters were inferred from the existing rodent species within the animal simulator while, the key drug- specific parameters used are summarized in Table 1. Briefly, all the physiochemical and binding to blood components (plasma proteins and erythrocytes) parameters of letrozole were derived from expansive literature review. […] Full-PBPK model was employed for drug distribution while the Rodgers and Rowland method or “Method 2”, as defined in Simcyp v17, predicted the volume of distribution (Vss). For the multi-compartment brain model, the passive permeability-surface area product on the BBB (PSB) was determined using the Crone- Renkin Equation [25, 26]: PSB=−Fpfln(1−Kin/Fpf) (3) where, Fpf is the cerebral blood or perfusion flow rate and Kin is the brain uptake clearance. […] The fu, brain for letrozole was experimentally determined in both healthy and tumor-bearing female Sprague-Dawley rats (N = 4/ group).
# [4] = Passive permeability-surface area products by Crone-Renkin equation
# Text: Simcyp Animal Simulator V17 (Certara Inc.) was employed for developing a bottom-up whole body PBPK model incorporating the specified multi-compartment brain model. Based on its anatomy and physiology, the whole brain is described by three compartments, viz. brain blood, brain mass and cerebrospinal fluid (CSF) as illustrated in Fig 1 (Simcyp® Rat Simulator). For model development, the physiological/ system-specific parameters were inferred from the existing rodent species within the animal simulator while, the key drug- specific parameters used are summarized in Table 1. Briefly, all the physiochemical and binding to blood components (plasma proteins and erythrocytes) parameters of letrozole were derived from expansive literature review. […] Full-PBPK model was employed for drug distribution while the Rodgers and Rowland method or “Method 2”, as defined in Simcyp v17, predicted the volume of distribution (Vss). For the multi-compartment brain model, the passive permeability-surface area product on the BBB (PSB) was determined using the Crone- Renkin Equation [25, 26]: PSB=−Fpfln(1−Kin/Fpf) (3) where, Fpf is the cerebral blood or perfusion flow rate and Kin is the brain uptake clearance. […] The passive permeability-surface area product on the blood-cerebrospinal fluid barrier (BCSFB), PSC, was assumed as half of the PSB [19, 27] while the passive permeability-surface area product on the cerebrospinal fluid-brain barrier (CSFBB), PSE, was set at 80 mL/min, assuming a high permeability of this barrier. Brain ECF concentrations were predicted using the in vivo unbound fraction in the brain (fu, brain) for letrozole multiplied by the simulated total brain concentrations. The fu, brain for letrozole was experimentally determined in both healthy and tumor-bearing female Sprague-Dawley rats (N = 4/ group).
# [5] = set-up: method as in PMID 16489364; conditions: cited from earlier work
# [6] = set-up: method as in PMID 17045772; conditions: rat liver microsomes; cited from earlier work
# [7] = set-up: method as in PMID 30357450; conditions: NSG mice; cited from earlier work
# P-glycoprotein (P-gp) = conditions: cited from earlier work
# [8] = Sprague-Dawley, rat, plasma, female rats
# [9] = Sprague-Dawley, rat, plasma, male rats
# [10] = female rats, steady state, 4 mg/kg i.p. daily for 11 days
# [11] = male rats, steady state, 4 mg/kg i.p. daily for 5 days
# [12] = female rats, steady state, 11 days
# [13] = male rats, steady state, 5 days
smiles,measurement,setting,value
N#Cc1ccc(C(c2ccc(C#N)cc2)n2cncn2)cc1 [letrozole],clearance,"[1]; Sprague-Dawley, rat, plasma, intraperitoneal, 4 mg/kg, female rats, read-out: clearance observed in this study",~0.25 mL/min
same,Cmax,[1]; [8],1200 ng/mL
same,Tmax,[1]; [8],8.5 h
same,Cmax,[1]; [9],1060 ng/mL
same,Tmax,[1]; [9],6.5 h
same,"CL (systemic clearance), plasma",[1]; female rats,57.4 (13.0)*** ml/h/kg
same,"Half-life t1/2, plasma","[1]; female rats, 4 mg/kg",34.0 (3.6)*** h
same,"AUC 0–12, plasma unbound",[1]; female rats,4446 (1160) h.ng/ml
same,"AUC 0–72, plasma unbound",[1]; female rats,20668 (4980) h.ng/ml
same,"Cmax, plasma unbound",[1]; female rats,456 (60) ng/ml
same,AUC(0-t),"[1]; female, Sprague-Dawley, rat, plasma, 4 mg/kg, female rats, read-out: AUC 0–12, plasma total",11700 ng·h/mL
same,AUC(0-t),"[1]; female, Sprague-Dawley, rat, plasma, 4 mg/kg, female rats, read-out: AUC 0–72, plasma total",54400 ng·h/mL
same,half-life,"[1]; female, Sprague-Dawley, rat, plasma, 4 mg/kg, female rats",~34 h
same,"CL (systemic clearance), plasma","[1]; male rats, 4 mg/kg",145.9 ± 14.0 ml/h/kg and 146 (14.0) ml/h/kg
same,"Half-life t1/2, plasma","[1]; male rats, 4 mg/kg",9.2 (2.4) h and 9.23 h
same,"AUC 0–12, plasma unbound",[1]; male rats,4066 (1140) h.ng/ml
same,"AUC 0–72, plasma unbound",[1]; male rats,9447 (1920) h.ng/ml
same,"Cmax, plasma unbound",[1]; male rats,403 (136) ng/ml
same,AUC(0-t),"[1]; male, Sprague-Dawley, rat, plasma, 4 mg/kg, male rats, read-out: AUC 0–12, plasma total",10700 ng·h/mL
same,AUC(0-t),"[1]; male, Sprague-Dawley, rat, plasma, 4 mg/kg, male rats, read-out: AUC 0–72, plasma total",24900 ng·h/mL
same,half-life,"[1]; male, Sprague-Dawley, rat, plasma, 4 mg/kg, male rats",~9 h
same,Cmax,[2]; [10],4830 ng/mL
same,Tmax,[2]; [10],5.3 h
same,Cmax,[2]; [11],1490 ng/mL
same,Tmax,[2]; [11],3.3 h
same,"Rac plasma (observed accumulation ratio, AUC0-12)","[2]; female rats, Day 11 / Day 1",4.2
same,"Rac plasma (observed accumulation ratio, Cmax)","[2]; female rats, Day 11 / Day 1",4.0
same,"Rac’ (theoretical/predicted accumulation ratio, Eq 2)",[2]; female rats,2.6
same,"CL (systemic clearance), plasma",[2]; [10],39.3 (5.5)* ml/h/kg
same,"AUC 0–12, plasma unbound",[2]; [12],18734 (2360) h.ng/ml
same,"AUC 0–24, plasma unbound",[2]; [12],39129 (5267) h.ng/ml
same,"Cmax, plasma unbound",[2]; [12],1835 (359) ng/ml
same,AUC(0-t),"[2]; female, female rats, steady state, 4 mg/kg i.p. daily for 11 days, read-out: AUC 0–12, plasma total",49300 ng·h/mL
same,AUC(0-t),"[2]; female, female rats, steady state, 4 mg/kg i.p. daily for 11 days, read-out: AUC 0–24, plasma total",103000 ng·h/mL
same,AUC(0-t),"[2]; female, female rats, steady state, 4 mg/kg i.p. daily for 11 days, read-out: plasma AUC 0–24",103000 ng·h/mL
same,observed accumulation at steady state (plasma Cmax and AUC0-12),[2]; male rats,approximately 1.4 fold
same,"Rac plasma (observed accumulation ratio, AUC0-12)","[2]; male rats, Day 5 / Day 1",1.4
same,"Rac plasma (observed accumulation ratio, Cmax)","[2]; male rats, Day 5 / Day 1",1.4
same,"Rac’ (theoretical/predicted accumulation ratio, Eq 2)",[2]; male rats,1.2
same,"CL (systemic clearance), plasma",[2]; [11],200.6 (98) ml/h/kg
same,"AUC 0–12, plasma unbound",[2]; [13],5624 (2430) h.ng/ml
same,"AUC 0–24, plasma unbound",[2]; [13],9424 (4660) h.ng/ml
same,"Cmax, plasma unbound",[2]; [13],566 (209) ng/ml
same,AUC(0-t),"[2]; male, male rats, steady state, 4 mg/kg i.p. daily for 5 days, read-out: AUC 0–12, plasma total",14800 ng·h/mL
same,AUC(0-t),"[2]; male, male rats, steady state, 4 mg/kg i.p. daily for 5 days, read-out: AUC 0–24, plasma total",24800 ng·h/mL
same,AUC(0-t),"[2]; male, male rats, steady state, 4 mg/kg i.p. daily for 5 days, read-out: plasma AUC 0–24",24800 ng·h/mL
same,"systemic clearance, difference between male and female rats",[2]; steady state,approximately 5.0 fold
same,fraction unbound,[3],0.58
same,PSC (passive permeability-surface area product on the BCSFB),[4]; Assumed to be half of PSB,0.42 mL/min
same,PSB (passive permeability-surface area product on the BBB),"[4]; Determined using Eq (3), assuming 1800 mg brain weight",0.84^b mL/min
same,PSB,[4]; Eq (3),"bBased on PSB = 0.469 mL/min/g brain weight, assuming 1800 mg brain weight."
same,oral bioavailability,[5],~100%
same,"overall intrinsic clearance and formation rate of the carbinol metabolite, male versus female rats",[6],about 3.0 fold
same,half-life,[7],~ 3 hrs
same,substrate for the efflux transporter P-glycoprotein (P-gp),P-glycoprotein (P-gp),not a substrate
